From patent EP0188793A1, “Improved topical minoxidil composition” (Richardson-Vicks, Inc., priority 1984, dated 1986)

Assay: in-vitro dripping (seepage) assay: distance traveled by a drop down an inclined glass plate
Type: physicochemical
Method: An in-vitro assay is utilized which measures the distance traveled by a 10 µ1 drop of the test formulation down a glass plate inclined at 45°C for 10 seconds. The test formulation is colored with dye to enhance the visual movement of the product. Pure ethanol (Ethanol, U.S.P) is used as the standard against which the test formulation is compared. […] The solvent system for each test formulation is 50:50 EtOH:HOH.
The ratio of the distance traveled ("dripping distance") by the particular test formulation to that of the ethanol standard provides the "dripping index" number for the test formulation.

CCO [100% Ethanol, Ethanol]
Dripping Distance (10 µ1 drop, glass plate inclined at 45°C, 10 seconds, solvent 50:50 EtOH:HOH): 60 mm
Dripping Index (ratio of dripping distance of the test formulation to that of the ethanol standard): 1.00
